From PubChem BioAssay AID1259407 (Chemical Carcinogenesis Research Information System (CCRIS), 2018)
The source made the active and inactive calls. How the calls were made is not given here.

Test system: CCRIS mutagenicity, Ames/micronucleus/aberration tests
Test: CCRIS mutagenicity studies

In the case of Oc1ccccc1, the mutagenic call (End Point: IN VITRO CHROMOSOMAL ABERRATIONS, Test System: CHO CELLS, Metabolic Activation: NONE) is reported as “inactive; negative”, the mutagenic call (End Point: IN VITRO CHROMOSOMAL ABERRATIONS, Test System: CHO CELLS, Metabolic Activation: RAT, LIVER, S-9, AROCLOR 1254) is reported as “active; positive” and the mutagenic call (End Point: IN VITRO CHROMOSOMAL ABERRATIONS, Test System: V79 CELLS, Metabolic Activation: NONE) is reported as “inactive; negative; effect more pronounced at ph 8 but no significant increase”. For the same compound, the mutagenic call (End Point: IN VITRO MICRONUCLEUS, Test System: CHINESE HAMSTER OVARY (CHO-K5), Metabolic Activation: NONE) was “active; positive; no statistical analysis was performed”, the mutagenic call (End Point: IN VITRO MICRONUCLEUS, Test System: CHINESE HAMSTER OVARY (CHO-K5), Metabolic Activation: RAT, LIVER, S-9, PHENOBARBITAL AND BETA-NAPHTHOFLAVONE) was “active; positive” and the mutagenic call (End Point: IN VITRO MICRONUCLEUS, Test System: CHL/IU CELLS, Metabolic Activation: RAT, LIVER, S-9, PHENOBARBITAL AND 5,6-BENZOFLAVONE) was “active; positive”. For the same compound, the mutagenic call (End Point: IN VITRO MICRONUCLEUS, Test System: CHO CELLS, Metabolic Activation: RAT, LIVER, S-9, AROCLOR 1254) was “active; positive”, the mutagenic call (End Point: In vivo micronucleus, Test System: Bone marrow cells, Species: Mouse, Strain/Sex: CD1/Female, Route: Intraperitoneal) was “active; positive (highest dose only)” and the mutagenic call (End Point: In vivo micronucleus, Test System: Bone marrow cells, Species: Mouse, Strain/Sex: CD1/Male, Route: Intraperitoneal) was “active; positive (highest dose only)”. The mutagenic call (Test System: AMES SALMONELLA TYPHIMURIUM, Strain/Indicator: TA97, Metabolic Activation: NONE, Method: PREINCUBATION) was “inactive; negative”, the mutagenic call (Test System: AMES SALMONELLA TYPHIMURIUM, Strain/Indicator: TA97, Metabolic Activation: RAT, LIVER, S-9, AROCLOR 1254, Method: PREINCUBATION) was “inactive; negative” and the mutagenic call (Test System: AMES SALMONELLA TYPHIMURIUM, Strain/Indicator: TA98, Metabolic Activation: NONE, Method: FLUCTUATION (MICROTITER)) was “inactive; negative”. The mutagenic call (Test System: AMES SALMONELLA TYPHIMURIUM, Strain/Indicator: TA98, Metabolic Activation: NONE, Method: PREINCUBATION) was “inactive; negative”, the mutagenic call (Test System: AMES SALMONELLA TYPHIMURIUM, Strain/Indicator: TA98, Metabolic Activation: RAT LIVER S-9, AROCLOR 1254, Method: FLUCTUATION (MICROTITER)) was “inactive; negative” and the mutagenic call (Test System: AMES SALMONELLA TYPHIMURIUM, Strain/Indicator: TA98, Metabolic Activation: RAT LIVER S-9, PHENOBARBITAL AND BETA-NAPHTHOFLAVONE, Method: PREINCUBATION) was “inactive; negative”. The mutagenic call (Test System: AMES SALMONELLA TYPHIMURIUM, Strain/Indicator: TA98, Metabolic Activation: RAT, LIVER, S-9, AROCLOR 1254, Method: PREINCUBATION) was “inactive; negative”, the mutagenic call (Test System: AMES SALMONELLA TYPHIMURIUM, Strain/Indicator: TA98, Metabolic Activation: RAT, LIVER, S-9, AROCLOR 1254, Method: STANDARD PLATE) was “inactive; negative” and the mutagenic call (Test System: AMES SALMONELLA TYPHIMURIUM, Strain/Indicator: TA100, Metabolic Activation: NONE, Method: FLUCTUATION TEST) was “inactive; negative”. The mutagenic call (Test System: AMES SALMONELLA TYPHIMURIUM, Strain/Indicator: TA100, Metabolic Activation: NONE, Method: PREINCUBATION) was “inactive; negative”, the mutagenic call (Test System: AMES SALMONELLA TYPHIMURIUM, Strain/Indicator: TA100, Metabolic Activation: RAT LIVER S-9, PHENOBARBITAL AND BETA-NAPHTHOFLAVONE, Method: PREINCUBATION) was “inactive; negative” and the mutagenic call (Test System: AMES SALMONELLA TYPHIMURIUM, Strain/Indicator: TA100, Metabolic Activation: RAT, LIVER, S-9, AROCLOR 1254, Method: PREINCUBATION) was “inactive; negative”. The mutagenic call (Test System: AMES SALMONELLA TYPHIMURIUM, Strain/Indicator: TA100, Metabolic Activation: RAT, LIVER, S-9, PCB, Method: FLUCTUATION TEST) was “active; positive”, the mutagenic call (Test System: AMES SALMONELLA TYPHIMURIUM, Strain/Indicator: TA102, Metabolic Activation: NONE, Method: PREINCUBATION) was “inactive; negative” and the mutagenic call (Test System: AMES SALMONELLA TYPHIMURIUM, Strain/Indicator: TA102, Metabolic Activation: RAT, LIVER, S-9, AROCLOR 1254, Method: PREINCUBATION) was “inactive; negative”. For the same compound, the mutagenic call (Test System: AMES SALMONELLA TYPHIMURIUM, Strain/Indicator: TA104, Metabolic Activation: NONE, Method: PREINCUBATION) was “inactive; negative”, the mutagenic call (Test System: AMES SALMONELLA TYPHIMURIUM, Strain/Indicator: TA104, Metabolic Activation: RAT, LIVER, S-9, AROCLOR 1254, Method: PREINCUBATION) was “inactive; negative” and the mutagenic call (Test System: AMES SALMONELLA TYPHIMURIUM, Strain/Indicator: TA1535, Metabolic Activation: NONE, Method: PREINCUBATION) was “inactive; negative”. The mutagenic call (Test System: AMES SALMONELLA TYPHIMURIUM, Strain/Indicator: TA1535, Metabolic Activation: RAT LIVER S-9, PHENOBARBITAL AND BETA-NAPHTHOFLAVONE, Method: PREINCUBATION) was “inactive; negative”, the mutagenic call (Test System: AMES SALMONELLA TYPHIMURIUM, Strain/Indicator: TA1535, Metabolic Activation: RAT, LIVER, S-9, AROCLOR 1254, Method: PREINCUBATION) was “inactive; negative” and the mutagenic call (Test System: AMES SALMONELLA TYPHIMURIUM, Strain/Indicator: TA1535, Metabolic Activation: RAT, LIVER, S-9, AROCLOR 1254, Method: STANDARD PLATE) was “inactive; negative”. The mutagenic call (Test System: AMES SALMONELLA TYPHIMURIUM, Strain/Indicator: TA1537, Metabolic Activation: NONE, Method: FLUCTUATION (MICROTITER)) was “inactive; negative”, the mutagenic call (Test System: AMES SALMONELLA TYPHIMURIUM, Strain/Indicator: TA1537, Metabolic Activation: NONE, Method: PREINCUBATION) was “inactive; negative” and the mutagenic call (Test System: AMES SALMONELLA TYPHIMURIUM, Strain/Indicator: TA1537, Metabolic Activation: RAT LIVER S-9, AROCLOR 1254, Method: FLUCTUATION (MICROTITER)) was “inactive; negative”. For the same compound, the mutagenic call (Test System: AMES SALMONELLA TYPHIMURIUM, Strain/Indicator: TA1537, Metabolic Activation: RAT LIVER S-9, PHENOBARBITAL AND BETA-NAPHTHOFLAVONE, Method: PREINCUBATION) was “inactive; negative”, the mutagenic call (Test System: AMES SALMONELLA TYPHIMURIUM, Strain/Indicator: TA7001, Metabolic Activation: NONE, Method: FLUCTUATION (MICROTITER)) was “inactive; negative” and the mutagenic call (Test System: AMES SALMONELLA TYPHIMURIUM, Strain/Indicator: TA7001, Metabolic Activation: RAT LIVER S-9, AROCLOR 1254, Method: FLUCTUATION (MICROTITER)) was “inactive; negative”. The mutagenic call (Test System: AMES SALMONELLA TYPHIMURIUM, Strain/Indicator: TA7002, Metabolic Activation: NONE, Method: FLUCTUATION (MICROTITER)) was “inactive; negative”, the mutagenic call (Test System: AMES SALMONELLA TYPHIMURIUM, Strain/Indicator: TA7002, Metabolic Activation: RAT LIVER S-9, AROCLOR 1254, Method: FLUCTUATION (MICROTITER)) was “inactive; negative” and the mutagenic call (Test System: AMES SALMONELLA TYPHIMURIUM, Strain/Indicator: TA7003, Metabolic Activation: NONE, Method: FLUCTUATION (MICROTITER)) was “inactive; negative”. For the same compound, the mutagenic call (Test System: AMES SALMONELLA TYPHIMURIUM, Strain/Indicator: TA7003, Metabolic Activation: RAT LIVER S-9, AROCLOR 1254, Method: FLUCTUATION (MICROTITER)) was “inactive; negative”, the mutagenic call (Test System: AMES SALMONELLA TYPHIMURIUM, Strain/Indicator: TA7004, Metabolic Activation: NONE, Method: FLUCTUATION (MICROTITER)) was “inactive; negative” and the mutagenic call (Test System: AMES SALMONELLA TYPHIMURIUM, Strain/Indicator: TA7004, Metabolic Activation: RAT LIVER S-9, AROCLOR 1254, Method: FLUCTUATION (MICROTITER)) was “inactive; negative”. The mutagenic call (Test System: AMES SALMONELLA TYPHIMURIUM, Strain/Indicator: TA7005, Metabolic Activation: NONE, Method: FLUCTUATION (MICROTITER)) was “inactive; negative”, the mutagenic call (Test System: AMES SALMONELLA TYPHIMURIUM, Strain/Indicator: TA7005, Metabolic Activation: RAT LIVER S-9, AROCLOR 1254, Method: FLUCTUATION (MICROTITER)) was “inactive; negative” and the mutagenic call (Test System: AMES SALMONELLA TYPHIMURIUM, Strain/Indicator: TA7006, Metabolic Activation: NONE, Method: FLUCTUATION (MICROTITER)) was “inactive; negative”. For the same compound, the mutagenic call (Test System: AMES SALMONELLA TYPHIMURIUM, Strain/Indicator: TA7006, Metabolic Activation: RAT LIVER S-9, AROCLOR 1254, Method: FLUCTUATION (MICROTITER)) was “inactive; negative”, the mutagenic call (Test System: CHINESE HAMSTER V-79, Strain/Indicator: V-79/6-THIOGUANINE, Metabolic Activation: NONE) was “inactive; negative” and the mutagenic call (Test System: E.COLI, Strain/Indicator: WP2UVRA, Metabolic Activation: NONE, Method: PREINCUBATION) was “inactive; negative”. For the same compound, the mutagenic call (Test System: E.COLI, Strain/Indicator: WP2UVRA, Metabolic Activation: RAT LIVER S-9, PHENOBARBITAL AND BETA-NAPHTHOFLAVONE, Method: PREINCUBATION) was “inactive; negative”, the mutagenic call (Test System: MOUSE LYMPHOMA, Strain/Indicator: L5178Y (TK+/TK-), Metabolic Activation: NONE, Method: SUSPENSION/PLATE) was “active; positive” and the mutagenic call (Test System: MOUSE LYMPHOMA, Strain/Indicator: L5178Y (TK+/TK-), Metabolic Activation: RAT, LIVER, S-9, AROCLOR 1254, Method: SUSPENSION/PLATE) was “active; positive”. The mutagenic call (Test System: UDS SHE CELLS, Strain/Indicator: THY INCORP, Metabolic Activation: NONE, Method: LIQUID SCINTILLATION COUNTING) was “active; positive”.
